Among the data in patent US7585859B2, “PDE4B inhibitors and uses therefor” (Plexxikon, Inc., priority 2004, dated 2009) are IC50 values, retold here.

Holding throughout (format): biochemical
The target in test [1] is T1, PDE4B: The catalytic domain of human PDE4B from S152-S528 (Homo sapiens, UniProt Q07343).
T1 construct: His6 (N); thrombin cleavage site (N); made in house; host or cells: E. coli
The test can be described thus: PDE4 IC50 determination by Scintillation Proximity Assay, PDE4B. A digest of the protocol: (§1)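 Hydrolysis of [^3H]cAMP measured by SPA with yttrium silicate beads, which bind the [^3H]AMP product strongly and cAMP weakly. Enzyme at 80 ng/ml for PDE4B, 4 ng/ml for PDE4D; 30 min at 30°.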
In general terms: SPA uses beads or plates that emit light when radiolabelled molecules are held near them.

Test [2] has as its target T2, full-length human PDE4B2 isozyme (Homo sapiens, UniProt Q07343).
T2 construct: The full-length human PDE4B2 isozyme; His6 (N); TEV cleavage site (N); made in house; host or cells: baculovirus infected insect cells (unpurified lysate)
In words: PDE4 IC50 determination by Scintillation Proximity Assay, PDE4B2. The protocol:
IC50s were determined by Scintillation Proximity Assay (SPA). The principle of the assay is based on the fact that cAMP, the PDE4 substrate, binds weakly to Yittrium Silicate SPA beads, whereas AMP, the product of PDE4 hydrolysis binds strongly. Thus, the extent of PDE4 hydrolysis of a sample of [^3H]cAMP can be measured because only the
[^3H]AMP produced by PDE4 hydrolysis will bind to the SPA beads and produce a scintillation signal.
PDE4 enzymes used for IC50 assays were:
PDE4B2: The full-length human PDE4B2 isozyme with an N-terminal His6 tag (SEQ ID NO: 18) and TEV cleavage site expressed in baculovirus infected insect cells. The enzyme was not purified from the cell lysates, so enzyme concentrations were not determined. Enzyme was stored in 50% glycerol at −20°.
Compounds tested (see Tables 3B, 4B and 5A for compounds and results) were 3-fold serially diluted 11 times in DMSO from a starting concentration of 4 mM or 40 μM, depending on compound potency. 1 μl of each dilution was transferred into duplicate wells of a white polystyrene 384-well assay plate (Coming #3705). In addition to the compound dilutions, each assay plate contained control wells with 1 μl of DMSO (to define 0% enzyme inhibition) or 1 μl of 200 μM roflumilast (to define 100% enzyme inhibition). Using a Beckman FX robot, 10 μl of [^3H] cAMP (Amersham TRK559) at 2 mCi/ml in assay buffer (50 mM Tris, pH 7.5; 8.3 mM MgCl; 1.7 mM EGTA; 0.01% BSA) was transferred to each assay well. Next, 10 μl of PDE4 enzyme in assay buffer was added and the plates were shaken for 30 s. at 1000 rpm to start the cAMP hydrolysis reaction. The concentrations of enzyme used were: PDE4B, 80 ng/ml; PDE4D, 4 ng/ml; PDE4B2, 2.5 μl of 50% glycerol stock/ml; PDE4D5 0.083 μl of 50% glycerol stock/ml. Assay plates were covered and incubated for 30 min. at 30°. Reactions were stopped by robotic addition of 10 μl of 5 mg/ml SPA beads (Amersham RPNQ0013) in 18 mM ZnSO4. The assay plates were covered with clear plastic film, centrifuged for 1 min. at 1000 RPM to settle the SPA beads, and counted using a Wallac TriLux scintillation counter. IC50's were calculated from the raw assay data by non-linear regression curve fitting using the Assay Explorer software package from MDL.

Another test has as its target T3, PDE4D (Homo sapiens, UniProt Q08499).
T3 construct: PDE4D: The catalytic domain of human PDE4B from S3 16-V692; His6 (N); thrombin cleavage site (N); made in house; host or cells: E. coli
In words: PDE4 IC50 determination by Scintillation Proximity Assay, PDE4D. A digest of the protocol:
as §1

Where [3] appears, read: second part of Table 2B (2-23 to 2-103), column 3, column is PDE4B in first part, read-out: IC 50 vs. indicated assay h TNFα.
The mark [4] stands for this setting: second part of Table 2B (2-23 to 2-103), column 4, column is PDE4B2 in first part, read-out: IC 50 vs. indicated assay h TNFα.
[5] abbreviates: Table 3A, Formula III compounds, read-out: IC50 PDE4B.
[6] abbreviates: Table 3A, Formula III compounds, read-out: IC50 PDE4D.

Read-outs that look alike come from different tables or passages of the source.

T1 sequence (Q07343 with tags, fused parts or gaps): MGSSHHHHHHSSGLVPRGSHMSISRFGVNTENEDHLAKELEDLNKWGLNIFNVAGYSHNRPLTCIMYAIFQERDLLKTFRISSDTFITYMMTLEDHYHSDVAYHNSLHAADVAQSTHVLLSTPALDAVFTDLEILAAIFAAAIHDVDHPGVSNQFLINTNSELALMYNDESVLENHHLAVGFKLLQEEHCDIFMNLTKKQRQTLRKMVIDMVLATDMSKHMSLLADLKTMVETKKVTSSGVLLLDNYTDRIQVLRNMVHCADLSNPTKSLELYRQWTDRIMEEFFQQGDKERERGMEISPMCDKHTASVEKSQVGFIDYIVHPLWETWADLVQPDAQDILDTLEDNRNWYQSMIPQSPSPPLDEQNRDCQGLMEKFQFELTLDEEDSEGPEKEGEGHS
T2 sequence (Q07343 1-564 isoform Q07343-2): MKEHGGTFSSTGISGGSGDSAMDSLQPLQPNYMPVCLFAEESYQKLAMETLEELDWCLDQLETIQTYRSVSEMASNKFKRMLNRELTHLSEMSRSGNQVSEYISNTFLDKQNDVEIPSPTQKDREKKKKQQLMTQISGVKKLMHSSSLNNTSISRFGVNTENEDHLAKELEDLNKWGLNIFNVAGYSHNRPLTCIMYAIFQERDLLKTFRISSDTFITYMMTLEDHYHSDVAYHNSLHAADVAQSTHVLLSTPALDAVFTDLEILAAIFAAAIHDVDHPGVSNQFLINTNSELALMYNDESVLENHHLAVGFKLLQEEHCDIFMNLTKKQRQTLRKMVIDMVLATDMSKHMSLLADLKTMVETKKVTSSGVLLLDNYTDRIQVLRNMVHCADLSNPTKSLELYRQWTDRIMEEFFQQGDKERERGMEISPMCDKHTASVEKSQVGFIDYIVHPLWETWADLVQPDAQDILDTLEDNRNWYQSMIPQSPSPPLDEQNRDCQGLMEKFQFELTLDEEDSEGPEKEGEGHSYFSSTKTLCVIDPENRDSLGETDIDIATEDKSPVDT
T3 sequence (Q08499 380-756): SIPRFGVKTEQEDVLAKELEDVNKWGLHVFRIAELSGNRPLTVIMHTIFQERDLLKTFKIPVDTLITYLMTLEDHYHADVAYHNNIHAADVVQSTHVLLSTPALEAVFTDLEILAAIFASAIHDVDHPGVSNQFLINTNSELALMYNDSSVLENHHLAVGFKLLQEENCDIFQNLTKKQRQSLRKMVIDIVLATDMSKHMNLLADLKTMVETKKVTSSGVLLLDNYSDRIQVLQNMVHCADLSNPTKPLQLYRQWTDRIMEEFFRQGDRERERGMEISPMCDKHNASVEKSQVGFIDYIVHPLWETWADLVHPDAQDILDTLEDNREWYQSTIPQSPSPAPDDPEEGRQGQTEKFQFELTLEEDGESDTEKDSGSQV

With `N#Cc1c(Nc2ccc(C(=O)NC3CCOC3=O)cc2)sc(C(=O)c2cc(-c3ccccc3)no2)c1N` (centres unmarked) [Compound 1-142, 4-[4-Amino-3-cyano-5-(3-phenyl-isoxazole-5-carbonyl)-thiophen-2-ylamino]-N-(2-oxo-tetrahydro-furan-3-yl)-benzamide], the IC50 was below 10 µM in test [1] (Table 1B, Formula I compounds, read-out: IC50 PDE4B); below 10 µM in test [2] (Table 1B, Formula I compounds, read-out: IC50 PDE4B2); below 10 µM at PDE4D (Table 1B, Formula I compounds, read-out: IC50 PDE4D).
As for `Nc1nc(Nc2c(Cl)cccc2Cl)sc1C(=O)c1ccccc1` [Compound 2-30, [4-Amino-2-(2,6-dichloro-phenylamino)-thiazol-5-yl]-phenyl-methanone], the IC50 in test [1] (setting [3]) is below 10 µM; in test [2] (setting [4]), below 10 µM; on PDE4D (second part of Table 2B (2-23 to 2-103), column 5, column is PDE4D in first part, read-out: IC 50 vs. indicated assay h TNFα), below 10 µM.
For the compound `Nc1nc(Nc2ccc(Oc3ccccc3)cc2)sc1C(=O)c1ccccc1` [Compound 2-67, [4-Amino-2-(4-phenoxy-phenylamino)-thiazol-5-yl]-phenyl-methanone], the IC50 in test [1] (setting [3]) and in test [2] (setting [4]) was below 10 µM throughout.
As to `Cc1nc(-c2ccc(S(=O)(=O)Nc3cccc4cccnc34)s2)cs1` [Compound 3-33, 5-(2-Methyl-thiazol-4-yl)-thiophene-2-sulfonic acid quinolin-8-ylamide], the IC50 (in test [1] (setting [5]); on PDE4D (setting [6])) was below 10 µM in each case.
As for `O=S(=O)(Nc1cccc2cccnc12)c1ccc(-c2cnco2)s1` [Compound 3-34, 5-Oxazol-5-yl-thiophene-2-sulfonic acid quinolin-8-ylamide], the IC50 (in test [1] (setting [5]); on PDE4D (setting [6])) was below 10 µM each time.
As for `O=S(=O)(Nc1cccc2cccnc12)c1cc(S(=O)(=O)c2ccccc2)cs1` [Compound 3-37, 4-Benzenesulfonyl-thiophene-2-sulfonic acid quinolin-8-ylamide], the IC50 (in test [1] (setting [5]); at PDE4D (setting [6])) was above 10 µM each time.
With `Cc1ccc2cccnc2c1NS(=O)(=O)c1ccc(S(=O)(=O)c2ccccc2)s1` [Compound 3-38, 5-Benzenesulfonyl-thiophene-2-sulfonic acid (7-methyl-quinolin-8-yl)-amide], the IC50 (in test [1] (setting [5]); at PDE4D (setting [6])) was above 10 µM throughout.
Regarding `Cc1ccc2cccnc2c1NS(=O)(=O)c1cc(S(=O)(=O)c2ccccc2)cs1` [Compound 3-39, 4-Benzenesulfonyl-thiophene-2-sulfonic acid (7-methyl-quinolin-8-yl)-amide], the IC50 (in test [1] (setting [5]); at PDE4D (setting [6])) was above 10 µM in each case.
Turning to `O=S(=O)(Nc1cccc2cccnc12)c1ccc(S(=O)(=O)c2ccccc2)s1` [Compound 3-40, 5-Benzenesulfonyl-thiophene-2-sulfonic acid quinolin-8-ylamide], the IC50 (in test [1] (setting [5]); at PDE4D (setting [6])) was above 10 µM each time.
For the compound `COc1cc(NS(=O)(=O)c2ccc(S(=O)(=O)c3ccccc3)s2)c2ncccc2c1` [Compound 3-41, 5-Benzenesulfonyl-thiophene-2-sulfonic acid (6-methoxy-quinolin-8-yl)-amide], the IC50 in test [1] (setting [5]) was below 10 µM; at PDE4D (setting [6]), above 10 µM.
`O=S(=O)(c1ccc(Br)s1)N(c1cccc2cccnc12)S(=O)(=O)c1ccc(Br)s1` [Compound 3-42]: the IC50 (in test [1] (setting [5]); at PDE4D (setting [6])) was above 10 µM throughout.
For the compound `COC(=O)c1ccc(S(=O)(=O)Nc2c(C)ccc3cccnc23)o1` [Compound 3-43, 5-(7-Methyl-quinolin-8-ylsulfamoyl)-furan-2-carboxylic acid methyl ester], the IC50 (in test [1] (setting [5]); at PDE4D (setting [6])) was above 10 µM each time.
On to `COC(=O)c1ccc(S(=O)(=O)Nc2cccc3cccnc23)o1` [Compound 3-44, 5-(Quinolin-8-ylsulfamoyl)-furan-2-carboxylic acid methyl ester], for which the IC50 (in test [1] (setting [5]); at PDE4D (setting [6])) was above 10 µM in each case.
Regarding `COC(=O)c1ccc(S(=O)(=O)Nc2cc(OC)cc3cccnc23)o1` [Compound 3-45, 5-(6-Methoxy-quinolin-8-ylsulfamoyl)-furan-2-carboxylic acid methyl ester], the IC50 (in test [1] (setting [5]); at PDE4D (setting [6])) was above 10 µM in each case.
As to `Cc1ccc(S(=O)(=O)Nc2cccc3cccnc23)cc1` [Compound 3-46, 4-Methyl-N-quinolin-8-yl-benzenesulfonamide], the IC50 (in test [1] (setting [5]); on PDE4D (setting [6])) was above 10 µM each time.
Turning to `Cc1ccc(S(=O)(=O)Nc2ccc(Br)c3cccnc23)cc1` [Compound 3-47, N-(5-Bromo-quinolin-8-yl)-4-methyl-benzenesulfonamide], the IC50 (in test [1] (setting [5]); on PDE4D (setting [6])) was above 10 µM in each case.
As for `COc1cc(NS(=O)(=O)c2ccc(C)cc2)c2ncccc2c1` [Compound 3-48, N-(6-Methoxy-quinolin-8-yl)-4-methyl-benzenesulfonamide], the IC50 (in test [1] (setting [5]); at PDE4D (setting [6])) was above 10 µM each time.
Turning to `COc1cc(NS(=O)(=O)c2cc(F)ccc2C)c2ncccc2c1` [Compound 3-49, 5-Fluoro-N-(6-methoxy-quinolin-8-yl)-2-methyl-benzenesulfonamide], the IC50 (in test [1] (setting [5]); at PDE4D (setting [6])) was above 10 µM in each case.
`COc1ccc(OC)c(S(=O)(=O)Nc2cc(OC)cc3cccnc23)c1` [Compound 3-51, 2,5-Dimethoxy-N-(6-methoxy-quinolin-8-yl)-benzenesulfonamide]: the IC50 (in test [1] (setting [5]); at PDE4D (setting [6])) was above 10 µM each time.
Take `COc1cc(NS(=O)(=O)c2ccc(C#N)cc2)c2ncccc2c1` [Compound 3-52, 4-Cyano-N-(6-methoxy-quinolin-8-yl)-benzenesulfonamide]: the IC50 (in test [1] (setting [5]); on PDE4D (setting [6])) was above 10 µM each time.
As for `COc1ccc(S(=O)(=O)Nc2cc(OC)cc3cccnc23)cc1` [Compound 3-53, 4-Methoxy-N-(6-methoxy-quinolin-8-yl)-benzenesulfonamide], the IC50 (in test [1] (setting [5]); on PDE4D (setting [6])) was above 10 µM throughout.
Take `COc1cc(NS(=O)(=O)Cc2ccccc2)c2ncccc2c1` [Compound 3-54, N-(6-Methoxy-quinolin-8-yl)-C-phenyl-methanesulfonamide]: the IC50 (in test [1] (setting [5]); on PDE4D (setting [6])) was above 10 µM in each case.
Consider `COc1cc(NS(=O)(=O)c2ccc(F)cc2)c2ncccc2c1` [Compound 3-55, 4-Fluoro-N-(6-methoxy-quinolin-8-yl)-benzenesulfonamide], for which the IC50 (in test [1] (setting [5]); on PDE4D (setting [6])) was above 10 µM throughout.
Regarding `COc1cc(NS(=O)(=O)c2cccc(F)c2)c2ncccc2c1` [Compound 3-56, 3-Fluoro-N-(6-methoxy-quinolin-8-yl)-benzenesulfonamide], the IC50 (in test [1] (setting [5]); on PDE4D (setting [6])) was above 10 µM in each case.
Consider `COc1cc(NS(=O)(=O)c2ccccc2C)c2ncccc2c1` [Compound 3-57, N-(6-Methoxy-quinolin-8-yl)-2-methyl-benzenesulfonamide], for which the IC50 (in test [1] (setting [5]); at PDE4D (setting [6])) was above 10 µM in each case.
For the compound `COc1cc(NS(=O)(=O)c2cc(C)ccc2OC)c2ncccc2c1` [Compound 3-58, 2-Methoxy-N-(6-methoxy-quinolin-8-yl)-5-methyl-benzenesulfonamide], the IC50 (in test [1] (setting [5]); at PDE4D (setting [6])) was above 10 µM each time.
Take `Cc1nccc(-c2cccc(S(=O)(=O)Nc3cccc4cccnc34)c2)n1` [Compound 3-66, 3-(2-Methyl-pyrimidin-4-yl)-N-quinolin-8-yl-benzenesulfonamide]: the IC50 (in test [1] (setting [5]); at PDE4D (setting [6])) was below 10 µM throughout.
